# ChEMBL document CHEMBL4229491, “Design, synthesis and evaluation of novel N-phenylbutanamide derivatives as KCNQ openers for the treatment of epilepsy” (Bioorg Med Chem Lett, 2018)
# Columns and labels:
# [1] = biological target: T1, Potassium voltage-gated channel subfamily KQT member 2 (Homo sapiens, UniProt O43526); test: Channel opening activity at KCNQ2 (unknown origin) expressed in CHO cells assessed as conductivity (I/I0 ratio) at 10 uM by electrophysiological patch-clamp test; format: cell-based
# [2] = biological target: T1, Potassium voltage-gated channel subfamily KQT member 2; test: Channel opening activity at KCNQ2 (unknown origin) expressed in CHO cells assessed as change in half activation potential at 10 uM by electrophysiological patch-clamp test; format: cell-based
# [3] = biological target: T1, Potassium voltage-gated channel subfamily KQT member 2; test: Channel opening activity at KCNQ2 (unknown origin) expressed in CHO cells after 10 mins by atomic absorption spectrophotometry-based Rb+ flow assay; format: cell-based
# [4] = biological target: T1, Potassium voltage-gated channel subfamily KQT member 2; test: Channel opening activity at KCNQ2 (unknown origin) expressed in CHO cells at 10 uM incubated for 20 mins in dark measured every 2 secs for 10 secs by fluorescence-based thallium influx assay relative to control; format: cell-based
# [5] = Drug uptake in Kunming mouse plasma at 15 mg/kg, ig measured after 2 hrs by LC/MS/MS analysis; format: ADME, organism-based; conditions: po
# Mus musculus [6] = test: Anticonvulsant activity in ip dosed maximal electroshock induced Kunming mouse assessed as suppression of hind legs rigidity measured after 30 mins; format: functional, organism-based
# [7] = Ratio of drug uptake in Kunming mouse brain to plasma at 1.5 mg/kg, iv measured after 5 mins by LC/MS/MS analysis; format: ADME, organism-based; conditions: read-out: BPR
# [8] = Drug uptake in Kunming mouse brain at 1.5 mg/kg, iv measured after 30 mins by LC/MS/MS analysis; format: ADME, organism-based; conditions: read-out: Drug uptake
# [9] = Drug uptake in Kunming mouse brain at 1.5 mg/kg, iv measured after 5 mins by LC/MS/MS analysis; format: ADME, organism-based; conditions: read-out: Drug uptake
# [10] = Drug uptake in Kunming mouse plasma at 15 mg/kg, ig measured after 30 mins by LC/MS/MS analysis; format: ADME, organism-based; conditions: po
# [11] = Ratio of drug uptake in Kunming mouse brain to plasma at 15 mg/kg, ig measured after 5 mins by LC/MS/MS analysis; format: ADME, organism-based; conditions: po, read-out: BPR
# [12] = Ratio of drug uptake in Kunming mouse brain to plasma at 1.5 mg/kg, iv measured after 2 hrs by LC/MS/MS analysis; format: ADME, organism-based; conditions: read-out: BPR
# Mus musculus [13] = test: Anticonvulsant activity in maximal electroshock induced Kunming mouse assessed as epilepsy incidence at 5 mg/kg, ip measured after 30 mins; format: functional
# [14] = Tmax in Sprague-Dawley rat at 1 mg/kg, iv by LC/MS/MS analysis; format: ADME, organism-based; conditions: in vivo
# [15] = Drug uptake in Kunming mouse brain at 1.5 mg/kg, iv measured after 2 hrs by LC/MS/MS analysis; format: ADME, organism-based; conditions: read-out: Drug uptake
# [16] = Drug uptake in Kunming mouse brain at 15 mg/kg, ig measured after 30 mins by LC/MS/MS analysis; format: ADME, organism-based; conditions: po, read-out: Drug uptake
# Rattus norvegicus [17] = test: Neurotoxicity in Sprague-Dawley rat at 1 mg/kg, ip measured after 30 mins by rotating-rod test; format: toxicity, organism-based; conditions: in vivo, 0.5 h
# [18] = Drug uptake in Kunming mouse plasma at 15 mg/kg, ig measured after 5 mins by LC/MS/MS analysis; format: ADME, organism-based; conditions: po
# [19] = MRTlast in Sprague-Dawley rat at 1 mg/kg, iv by LC/MS/MS analysis; format: ADME, organism-based; conditions: in vivo
# Rattus norvegicus [20] = test: Neurotoxicity in Sprague-Dawley rat at 5 mg/kg, ip measured after 30 mins by rotating-rod test; format: toxicity, organism-based; conditions: in vivo, 0.5 h
# [21] = Drug uptake in Kunming mouse brain at 15 mg/kg, ig measured after 5 mins by LC/MS/MS analysis; format: ADME, organism-based; conditions: po, read-out: Drug uptake
# [22] = Half life in Sprague-Dawley rat at 1 mg/kg, iv by LC/MS/MS analysis; format: ADME, organism-based; conditions: in vivo
# [23] = Drug uptake in Kunming mouse plasma at 1.5 mg/kg, iv measured after 5 mins by LC/MS/MS analysis; format: ADME, organism-based
# Mus musculus [24] = test: Anticonvulsant activity in maximal electroshock induced Kunming mouse assessed as epilepsy incidence at 3 mg/kg, ip measured after 30 mins; format: functional
# Mus musculus [25] = test: Anticonvulsant activity in maximal electroshock induced Kunming mouse assessed as epilepsy incidence at 1 mg/kg, ip measured after 30 mins; format: functional
# [26] = Ratio of drug uptake in Kunming mouse brain to plasma at 15 mg/kg, ig measured after 2 hrs by LC/MS/MS analysis; format: ADME, organism-based; conditions: po, read-out: BPR
# [27] = AUClast in Sprague-Dawley rat at 1 mg/kg, iv by LC/MS/MS analysis; format: ADME, organism-based; parameters: dose 1 mg/kg, route intravenous, time 0 - last; conditions: in vivo
# [28] = Apparent volume of distribution in Sprague-Dawley rat at 1 mg/kg, iv by LC/MS/MS analysis; format: ADME, organism-based; conditions: in vivo, read-out: Vz
# [29] = Clearance in Sprague-Dawley rat at 1 mg/kg, iv by LC/MS/MS analysis; format: ADME, organism-based; conditions: in vivo
# Rattus norvegicus [30] = test: Neurotoxicity in Sprague-Dawley rat at 3 mg/kg, ip measured after 30 mins by rotating-rod test; format: toxicity, organism-based; conditions: in vivo, 0.5 h
# Mus musculus [31] = test: Anticonvulsant activity in maximal electroshock induced Kunming mouse assessed as epilepsy incidence at 0.3 mg/kg, ip measured after 30 mins; format: functional
# [32] = biological target: T1, Potassium voltage-gated channel subfamily KQT member 2; test: Potency index, ratio of retigabine EC50 to compound EC50 for channel opening activity at KCNQ2 (unknown origin) expressed in CHO cells by atomic absorption spectrophotometry-based Rb+ flow assay; format: cell-based
# [33] = Cmax in Sprague-Dawley rat at 1 mg/kg, iv by LC/MS/MS analysis; format: ADME, organism-based; parameters: dose 1 mg/kg, route intravenous; conditions: in vivo
# [34] = Drug uptake in Kunming mouse brain at 15 mg/kg, ig measured after 2 hrs by LC/MS/MS analysis; format: ADME, organism-based; conditions: po, read-out: Drug uptake
# [35] = Ratio of drug uptake in Kunming mouse brain to plasma at 15 mg/kg, ig measured after 30 mins by LC/MS/MS analysis; format: ADME, organism-based; conditions: po, read-out: BPR
# [36] = Drug uptake in Kunming mouse plasma at 1.5 mg/kg, iv measured after 2 hrs by LC/MS/MS analysis; format: ADME, organism-based
# [37] = Drug uptake in Kunming mouse plasma at 1.5 mg/kg, iv measured after 30 mins by LC/MS/MS analysis; format: ADME, organism-based
# Rattus norvegicus [38] = test: Neurotoxicity in Sprague-Dawley rat at 0.3 mg/kg, ip measured after 30 mins by rotating-rod test; format: toxicity, organism-based; conditions: in vivo, 0.5 h
# [39] = Ratio of drug uptake in Kunming mouse brain to plasma at 1.5 mg/kg, iv measured after 30 mins by LC/MS/MS analysis; format: ADME, organism-based; conditions: read-out: BPR
# Rattus norvegicus [40] = test: Neurotoxicity in Sprague-Dawley rat at 25 mg/kg, ip measured after 30 mins by rotating-rod test; format: toxicity, organism-based; conditions: in vivo, 0.5 h
# Mus musculus [41] = test: Anticonvulsant activity in maximal electroshock induced Kunming mouse assessed as epilepsy incidence at 25 mg/kg, ip measured after 30 mins; format: functional
# T1 sequence (O43526 whole entry): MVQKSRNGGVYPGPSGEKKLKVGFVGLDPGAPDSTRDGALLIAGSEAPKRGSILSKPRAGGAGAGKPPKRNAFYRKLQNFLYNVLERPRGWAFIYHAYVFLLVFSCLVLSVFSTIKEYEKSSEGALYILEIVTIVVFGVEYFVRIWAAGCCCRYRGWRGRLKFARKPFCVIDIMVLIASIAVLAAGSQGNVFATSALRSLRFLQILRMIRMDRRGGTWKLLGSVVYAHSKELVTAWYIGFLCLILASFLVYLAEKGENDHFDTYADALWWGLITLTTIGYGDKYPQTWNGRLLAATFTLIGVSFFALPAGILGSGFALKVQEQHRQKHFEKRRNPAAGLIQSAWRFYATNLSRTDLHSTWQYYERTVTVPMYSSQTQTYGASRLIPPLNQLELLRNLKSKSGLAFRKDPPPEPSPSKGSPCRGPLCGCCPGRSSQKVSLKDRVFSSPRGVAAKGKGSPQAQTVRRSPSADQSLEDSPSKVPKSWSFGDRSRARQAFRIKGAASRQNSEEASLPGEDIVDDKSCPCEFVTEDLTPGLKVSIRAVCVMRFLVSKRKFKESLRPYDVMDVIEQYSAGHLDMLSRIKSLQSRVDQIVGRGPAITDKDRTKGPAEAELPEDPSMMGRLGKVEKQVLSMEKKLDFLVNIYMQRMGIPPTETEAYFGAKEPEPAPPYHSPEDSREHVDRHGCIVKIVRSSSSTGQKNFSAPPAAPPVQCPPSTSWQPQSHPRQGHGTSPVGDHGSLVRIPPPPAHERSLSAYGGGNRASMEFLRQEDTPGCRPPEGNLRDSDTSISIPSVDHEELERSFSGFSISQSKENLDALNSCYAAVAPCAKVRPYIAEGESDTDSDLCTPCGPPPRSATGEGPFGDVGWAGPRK
compound,measurement,setting,value
Cc1cc(N2CCc3ccsc3C2)cc(C)c1NC(=O)CC(C)(C)C,Ratio,[1],0.67
same,V1/2,[2],53.3 mV
same,EC50,[3],0.02 µM
same,Activity,[4],64.8%
Cc1csc2c1CN(c1cc(C)c(NC(=O)CC(C)(C)C)c(C)c1)CC2,EC50,[3],0.3 µM
Cc1cc(N2CCCCc3cc(Br)ccc32)cc(C)c1NC(=O)CC(C)(C)C,EC50,[3],1.08 µM
Cc1cc(N2CCCCc3cc(F)ccc32)cc(C)c1NC(=O)CC(C)(C)C,EC50,[3],0.25 µM
Cc1cc(N2CCc3cc(F)sc3C2)cc(C)c1NC(=O)CC(C)(C)C,EC50,[3],2.93 µM
Cc1cc2c(s1)CN(c1cc(C)c(NC(=O)CC(C)(C)C)c(C)c1)CC2,EC50,[3],0.03 µM
Cc1cc(N2CCc3sc(C#N)cc3C2)cc(C)c1NC(=O)CC(C)(C)C,EC50,[3],0.29 µM
Cc1cc(N2CCc3sccc3C2)cc(C)c1NC(=O)CC(C)(C)C,concentration at 2 h,[5],0.0529 µg/mL
same,Ratio,[1],1.63
same,EC50,Mus musculus [6],1.83 mg/kg
same,Kp at 5 min,[7],0.18
same,concentration at 0.5 h,[8],19 ng/g
same,concentration at 5 min,[9],140 ng/g
same,concentration at 0.5 h,[10],0.243 µg/mL
same,Kp at 5 min,[11],0.12
same,Kp at 2 h,[12],0.16
same,Activity,Mus musculus [13],20%
same,Tmax,[14],1.8 min
same,concentration at 2 h,[15],1.27 ng/g
same,concentration at 0.5 h,[16],30 ng/g
same,Activity,Rattus norvegicus [17],0%
same,concentration at 5 min,[18],0.201 µg/mL
same,MRT last,[19],2.17 h
same,Activity,Rattus norvegicus [20],0%
same,concentration at 5 min,[21],25 ng/g
same,half-life,[22],5.49 h
same,concentration at 5 min,[23],0.771 µg/mL
same,Activity,Mus musculus [24],20%
same,Activity,Mus musculus [25],90%
same,Kp at 2 h,[26],0.09
same,AUC(0-t),[27],0.687 µg·h/mL
same,Vd,[28],11.2 L/kg
same,clearance,[29],1.42 L/h/kg
same,Activity,Rattus norvegicus [30],0%
same,Activity,Mus musculus [31],70%
same,V1/2,[2],66.2 mV
same,Ratio EC50,[32],17
same,Cmax,[33],1.06 µg/mL
same,concentration at 2 h,[34],4.96 ng/g
same,Kp at 0.5 h,[35],0.12
same,EC50,[3],0.02 µM
same,concentration at 2 h,[36],0.00785 µg/mL
same,concentration at 0.5 h,[37],0.137 µg/mL
same,Activity,Rattus norvegicus [38],0%
same,Kp at 0.5 h,[39],0.14
same,Activity,[4],84.2%
Cc1cc(N2CCCCc3cc(Cl)ccc32)cc(C)c1NC(=O)CC(C)(C)C,EC50,[3],0.14 µM
Cc1ccc2c(c1)CCCCN2c1cc(C)c(NC(=O)CC(C)(C)C)c(C)c1,EC50,[3],0.04 µM
CCOC(=O)Nc1ccc(NCc2ccc(F)cc2)cc1N [EZOGABINE],Ratio,[1],2.12
same,Activity,Rattus norvegicus [40],0%
same,Activity,Mus musculus [41],15%
same,V1/2,[2],40 mV
Cc1cc(N2CCn3cccc3C2)cc(C)c1NC(=O)CC(C)(C)C,Ratio,[1],1.65
same,V1/2,[2],46.1 mV
same,EC50,[3],0.034 µM
same,Activity,[4],4.87%
Cc1cc(N2CCc3sc(C(F)(F)F)cc3C2)cc(C)c1NC(=O)CC(C)(C)C,EC50,[3],0.12 µM
